Holding throughout (assay type): cell-based
For experiment [1], the system named is histone acetylation in P. falciparum Dd2 parent. Kind of experiment: Histone acetylation Western blot, Dd2 parent. Particulars: trophozoites, 3 h exposure.
Protocol: Synchronous trophozoite-stage (24-32hr post-invasion) cultures at 3–5% parasitemia and 2% hematocrit in complete medium were exposed to test compounds for 3 hr at 37°C. […] DMSO was tested at 0.1% as the vehicle-only control. Following drug exposure, parasites were isolated via saponin lysis ice-cold 0.1% saponin in phosphate-buffered saline (PBS). Isolated parasites were washed 3x in ice-cold PBS containing protease inhibitor cocktail (cOmplete mini, Roche) and lysed in 1x Laemmli Sample Buffer (Biorad) with 5% beta-mercaptoethanol (Sigma-Aldrich). Samples were heated at 99°C for 10 min before centrifugation. Equal quantities of solute were separated on Protean TGX Precast Gels (4–20% gradient) in Tris-SDS-glycine buffer, transferred to nitrocellulose membrane by iblot (Invitrogen), and blocked for 1h in tris-buffered saline (TBS) with 5% skim milk powder. Blocked membranes were probed with antibodies recognising tetra-acetylated H4 (H4ac4, Sigma-Aldrich 06–866), H4K8ac (CST #2594), H3K9ac (CST #9649) or H3 (CST #4499), at 1:1000 dilution, and PfBiP ([Shonhai et al., 2007]) (at 1:5000 dilution) in 3% milk powder TBS with 0.1% Tween 20 at 4°C overnight and with 800CW goat α-rabbit IgG (Licor) at 1:10,000 dilution. Membranes were visualised using a Licor Odyssey CLX imaging system and quantified using ImageJ.
For experiment [2], the system named is P. falciparum MMV019721-resistant lines (3D7-A10 or Dd2-B2 derived). Kind of experiment: Dose-response assay of MMV019721-selected resistant lines (bulk cultures and clones). The conditions noted are these: Plasmodium falciparum. The procedure:
(§1) For in vitro–selected lines, drug susceptibility was measured by SYBR Green I–based assay ([Johnson et al., 2007]; [Smilkstein et al., 2004]). Ring-stage parasites were cultured for 72 hr at 1% hematocrit and 1% starting parasitemia in 384-well black clear-bottom plates containing test compounds plated in triplicate in 12-point serial dilutions. Lysis buffer (0.16% w/v saponin, 1.6% Triton X-100, 5 mM EDTA, and 20 mM Tris-HCl, pH 7.4) with SYBR Green I fluorescent dye (Invitrogen) was added, and fluorescence readings were taken (excitation at 494 nm, emission at 530 nm). Alternatively, Dd2-B2 ring-stage cultures at 0.3% parasitemia and 1% hematocrit were exposed for 72 hr to a range of ten drug concentrations that were 2-fold serially diluted in duplicates along with drug-free controls. Parasite survival was assessed by flow cytometry on an Accuri C6 (BD Biosciences) using SYBR Green and MitoTracker Deep Red FM (Life Technologies) as nucleic acid stain and vital dyes respectively. EC50 values were calculated using a nonlinear regression curve fit in Prism Software version 8 (GraphPad).
(§2) Bulk cultures were tested for reduced drug susceptibility and individual clones were isolated by limiting dilution.

The subject of experiment [3] is P. falciparum MMV084978-resistant clones (Dd2-B2 derived). Kind of experiment: Dose-response assay of MMV084978-selected resistant clones. Particulars: Plasmodium falciparum. The procedure: as §1, with “Ring-stage” for “For in vitro–selected lines, drug susceptibility was measured by SYBR Green I–based assay ([Johnson et al., 2007]; [Smilkstein et al., 2004]). Ring-stage”, “Lysis buffer (0.16% w/v saponin, 1.6% Triton X-100, 5 mM EDTA, and 20 mM Tris-HCl, pH 7.4) with SYBR Green I fluorescent dye (Invitrogen) was added, and fluorescence readings were taken (excitation at 494 nm, emission at 530 nm).” left out
as §2

Like-named read-outs stand apart in the source and are kept apart here.

Take `CCN(CC)S(=O)(=O)c1ccc(Cl)c(C(=O)Nc2ccc3nc(C)sc3c2)c1` [MMV019721]: the “histone acetylation in Dd2 parent” value in experiment [1] is recorded as “dose-dependent reduction”. Moreover, the EC50 (as a rule, the concentration at which the effect is half-maximal) is 1400 ± 200 nM in experiment [2] (MDR1, read-out: MMV019721 mean EC50 (nM) ± SD (n), selection 9, Dd2-B2, clone B3, AcAS CNV, MDR1 CNV, AP2-I CNV); 7700 ± 570 nM in experiment [2] (read-out: MMV019721 mean EC50 (nM) ± SD (n), selection 1, Dd2-B2, clone E4, AcAS:A597V); 9200 ± 810 nM in experiment [2] (read-out: MMV019721 mean EC50 (nM) ± SD (n), selection 2, Dd2-B2, clone E10, AcAS:A597V); 8400 nM in experiment [2] (read-out: MMV019721 mean EC50 (nM) ± SD (n), selection 2, Dd2-B2, clone F12, AcAS:A597V, n=1); 9000 ± 490 nM in experiment [2] (read-out: MMV019721 mean EC50 (nM) ± SD (n), selection 3, Dd2-B2, clone F2, AcAS:A597V); 11000 ± 1300 nM in experiment [2] (read-out: MMV019721 mean EC50 (nM) ± SD (n), selection 3, Dd2-B2, clone F10, AcAS:A597V). Also, the EC50 in experiment [2] (read-out: MMV019721 mean EC50 (nM) ± SD (n), selection 4, 3D7-A10, Bulk, sequencing not determined) was 460 ± 100 nM; in experiment [2] (read-out: MMV019721 mean EC50 (nM) ± SD (n), selection 5, 3D7-A10, clone 2B1C, AcAS:T648M), 7700 ± 1200 nM; in experiment [2] (read-out: MMV019721 mean EC50 (nM) ± SD (n), selection 5, 3D7-A10, clone 2B1F, AcAS:T648M) it was 7500 ± 1400 nM; in experiment [2] (read-out: MMV019721 mean EC50 (nM) ± SD (n), selection 5, 3D7-A10, clone 2B12B, AcAS:T648M), 7400 ± 500 nM; in experiment [2] (read-out: MMV019721 mean EC50 (nM) ± SD (n), selection 6, 3D7-A10, clone 3B1D, AcAS:T648M), 7100 ± 1700 nM; in experiment [2] (read-out: MMV019721 mean EC50 (nM) ± SD (n), selection 6, 3D7-A10, clone 3B6H, AcAS:T648M) it was 6800 ± 420 nM. Besides, the EC50 in experiment [2] (read-out: MMV019721 mean EC50 (nM) ± SD (n), selection 6, 3D7-A10, clone 3B11G, AcAS:T648M) was 6800 ± 1100 nM; in experiment [2] (read-out: MMV019721 mean EC50 (nM) ± SD (n), selection 7, 3D7-A10, clone 4B3D, AcAS:T648M), 7700 ± 1700 nM; in experiment [2] (read-out: MMV019721 mean EC50 (nM) ± SD (n), selection 7, 3D7-A10, clone 4B4H, AcAS:T648M), 8400 ± 680 nM; in experiment [2] (read-out: MMV019721 mean EC50 (nM) ± SD (n), selection 7, 3D7-A10, clone 4B8B, AcAS:T648M) it was 7500 ± 1100 nM; in experiment [2] (read-out: MMV019721 mean EC50 (nM) ± SD (n), selection 8, Dd2-B2, clone A3, AcAS CNV, AP2-I CNV), 1400 ± 90 nM; in experiment [2] (read-out: MMV019721 mean EC50 (nM) ± SD (n), selection 10, Dd2-B2, clone C3, ACS11 INDEL(Leu24-Asp30), AP2-I CNV) it was 2000 ± 170 nM. Further, the EC50 in experiment [2] (read-out: MMV019721 mean EC50 (nM) ± SD (n), selection 11, 3D7-A10, clone 1E9, sequencing not determined) stood at 3000 ± 250 nM; in experiment [2] (read-out: MMV019721 mean EC50 (nM) ± SD (n), selection 11, 3D7-A10, clone 1E12, AcAS: Ala652Thr), 2700 ± 270 nM; in experiment [2] (read-out: MMV019721 mean EC50 (nM) ± SD (n), selection 11, 3D7-A10, clone 1G4, sequencing not determined), 2000 ± 600 nM; in experiment [2] (read-out: MMV019721 mean EC50 (nM) ± SD (n), selection 11, 3D7-A10, clone 1G8, ACS11:Thr767Ile), 1700 ± 340 nM; in experiment [2] (read-out: MMV019721 mean EC50 (nM) ± SD (n), selection 12, 3D7-A10, clone 2B4, AcAS:T648M), 8500 ± 840 nM; in experiment [2] (read-out: MMV019721 mean EC50 (nM) ± SD (n), selection 12, 3D7-A10, clone 2C6, sequencing not determined), 2200 ± 770 nM. In addition, the concentration for a half-maximal effect (EC50) in experiment [2] (read-out: MMV019721 mean EC50 (nM) ± SD (n), selection 12, 3D7-A10, clone 2D11, sequencing not determined) came out at 7100 ± 1300 nM; in experiment [2] (read-out: MMV019721 mean EC50 (nM) ± SD (n), selection 12, 3D7-A10, clone 2G6, AcAS: Ala652Thr) it was 4000 ± 630 nM; in experiment [2] (read-out: MMV019721 mean EC50 (nM) ± SD (n), selection 13, 3D7-A10, clone 3B9, sequencing not determined), 2300 ± 680 nM; in experiment [2] (read-out: MMV019721 mean EC50 (nM) ± SD (n), selection 13, 3D7-A10, clone 3C7, sequencing not determined), 2300 ± 530 nM; in experiment [2] (read-out: MMV019721 mean EC50 (nM) ± SD (n), selection 13, 3D7-A10, clone 3D10, ACS11: Asp269Gly), 1500 ± 82 nM; in experiment [2] (read-out: MMV019721 mean EC50 (nM) ± SD (n), selection 13, 3D7-A10, clone 3G8, ACS11: Ser74Leu) it was 2200 ± 570 nM. Moreover, the EC50 lay within 7700 to 11000 nM in experiment [2] (read-out: PfAcAS:A597V-resistant clone EC50, range over A597V clones) and 6800 to 8400 nM in experiment [2] (read-out: PfAcAS:T648M EC50, range over T648M clones).

With `O=C(NNC(=O)c1csnn1)c1ccc(Cl)cc1` [MMV084978], the EC50 in experiment [3] (DD2, read-out: MMV084978 mean EC50 (nM) ± SD (n), selection 1, Dd2-B2, clone A7, AcAS:A597V) is over 9600 nM; in experiment [3] (DD2, read-out: MMV084978 mean EC50 (nM) ± SD (n), selection 1, Dd2-B2, clone C11, sequencing not determined) it was 2500 ± 42 nM; in experiment [3] (DD2, read-out: MMV084978 mean EC50 (nM) ± SD (n), selection 1, Dd2-B2, clone E5, sequencing not determined), 2600 ± 47 nM; in experiment [3] (DD2, read-out: MMV084978 mean EC50 (nM) ± SD (n), selection 1, Dd2-B2, clone F1, sequencing not determined) it was 2800 ± 260 nM; in experiment [3] (DD2, read-out: MMV084978 mean EC50 (nM) ± SD (n), selection 1, Dd2-B2, clone F9, sequencing not determined), 2100 ± 53 nM; in experiment [3] (DD2, read-out: MMV084978 mean EC50 (nM) ± SD (n), selection 1, Dd2-B2, clone G8, AcAS:A652S) it was 2500 ± 24 nM. Moreover, the EC50 stood at 2400 ± 33 nM in experiment [3] (DD2, read-out: MMV084978 mean EC50 (nM) ± SD (n), selection 2, Dd2-B2, clone B8, sequencing not determined); 2400 ± 1.7 nM in experiment [3] (DD2, read-out: MMV084978 mean EC50 (nM) ± SD (n), selection 2, Dd2-B2, clone C4, sequencing not determined); 2600 ± 76 nM in experiment [3] (DD2, read-out: MMV084978 mean EC50 (nM) ± SD (n), selection 2, Dd2-B2, clone E9, AcAS:A652S); 2600 ± 7 nM in experiment [3] (DD2, read-out: MMV084978 mean EC50 (nM) ± SD (n), selection 2, Dd2-B2, clone F8, sequencing not determined); 970 ± 41 nM in experiment [3] (DD2, read-out: MMV084978 mean EC50 (nM) ± SD (n), selection 2, Dd2-B2, clone H12, AcAS:Y607C).

The values above are taken from PMC8878317, “Chemogenomics identifies acetyl-coenzyme A synthetase as a target for malaria treatment and prevention” (Cell Chemical Biology, 2022).
